Four compounds from article PMC8164657, “Intraoperative visualization of nerves using a myelin protein-zero specific fluorescent tracer” (EJNMMI Research, 2021) can be followed below.

The test system of data set [1] is P0-expressing RT4 D6P2T myelinating Schwannoma cells. As to the kind of experiment: Fluorescence confocal microscopy staining of P0-expressing cells. In kind it is cell-based. As to conditions: 1 µM, 1 h incubation at 4 °C, N = 3 per tracer. As for the experimental part: Cells were trypsinized and seeded onto 35-mm culture dishes that contained a glass insert (MatTek co) on the day prior to the imaging experiment.
To all samples, 1 mL medium containing 1 µM Cy5-P0_1–25, Cy5-P0_21–45, Cy5-P0_41–65, Cy5-P0_61–85, Cy5-P0_81–105, Cy5-P0_95–120, or Cy5-P0_101–125 was added at one hour prior to imaging (incubation at 4 °C; N = 3 per tracer). Peptide solutions were sonicated for 20 s prior to addition, in order to prevent aggregation of the peptides in solution. Cy5-functionalized derivatives of a P0-specific antibody (Cy5-P0Ab-H60), the extracellular portion of P0 (Cy5-P0ex) as well as a non-P0-specific peptide (Cy5-NP-41) and non-functionalized Cy5-Maleimide were used as controls (1 µM). A lysosomal (lysotracker green; 2 µL/mL, DND-26, Thermo Fisher) and nuclear stain (Hoechst 33342; 1 mg/mL, Thermo Fisher) were added as means to localize the cell nucleus and intracellular lysosomes. […]
(§1) In vitro and ex vivo fluorescence confocal images were acquired using a Leica SP8 WL at sequential settings and 10 × or 63 × magnification. […] For blocking studies, quantification of the fluorescence signal intensity (N = 10 for blocked and non-blocked) in the obtained images was performed using ImageJ according to previously described methods. […]

The target in data set [2] is T1, P0 (RT4 D6P2T Schwannoma cells) (Rattus norvegicus, UniProt P06907).
T1 construct: was performed using P0-expressing RT4 D6P2T cells; host or cells: RT4 D6P2T Schwannoma cells
T1 sequence (P06907 30-248): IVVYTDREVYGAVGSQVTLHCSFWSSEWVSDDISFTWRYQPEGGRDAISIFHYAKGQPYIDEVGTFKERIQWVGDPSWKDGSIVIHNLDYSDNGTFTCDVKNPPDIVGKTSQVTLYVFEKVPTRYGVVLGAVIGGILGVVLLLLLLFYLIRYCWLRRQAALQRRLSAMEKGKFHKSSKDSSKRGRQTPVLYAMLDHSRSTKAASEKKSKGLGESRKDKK
Put plainly: Blocking experiment with P0Ab. In kind it is cell-based. As to conditions: 5 µL of 1 mg/mL P0Ab one hour prior to tracer; N = 10; ImageJ quantification; p = 0.001. The method, then: To all samples, 1 mL medium containing 1 µM Cy5-P0_1–25, Cy5-P0_21–45, Cy5-P0_41–65, Cy5-P0_61–85, Cy5-P0_81–105, Cy5-P0_95–120, or Cy5-P0_101–125 was added at one hour prior to imaging (incubation at 4 °C; N = 3 per tracer). Peptide solutions were sonicated for 20 s prior to addition, in order to prevent aggregation of the peptides in solution. Cy5-functionalized derivatives of a P0-specific antibody (Cy5-P0Ab-H60), the extracellular portion of P0 (Cy5-P0ex) as well as a non-P0-specific peptide (Cy5-NP-41) and non-functionalized Cy5-Maleimide were used as controls (1 µM). A lysosomal (lysotracker green; 2 µL/mL, DND-26, Thermo Fisher) and nuclear stain (Hoechst 33342; 1 mg/mL, Thermo Fisher) were added as means to localize the cell nucleus and intracellular lysosomes. For blocking studies, 5 µL of a 1 mg/mL solution of non-functionalized P0Ab was added to the cells one hour prior to addition of Cy5-P0_101–125. The synthesis of the control compounds is described in the methods section of Additional file 1: Synthesis of control compounds.
as §1

A short description of a further data set: Serum protein binding. In kind it is in vitro ADME. As for the experimental part:
(§2) spectrometer (Pharmacia Biotech).
(§3) Serum protein binding and LogP o/w
(§4) functionalized Cy5 were determined as previously described (7).
(§5) The stability towards glutathione of Cy5-

A short description of a further data set: Solubility in H2O. To be noted: water; saturated solution in H2O at r.t., centrifugation, absorption of supernatant (UV/Vis). In kind it is physicochemical.
Data set [3] in a line: Stability towards glutathione. In kind it is physicochemical. As for the experimental part:
as §2, §3, §4, §5

For data set [4] the following is noted: serum.
Data set [5] is described as follows: Lipophilicity in octanol/water (LogPo/w). To be noted: read-out: Lipophilicity (o/w), LogPo/w. In kind it is physicochemical. As for the experimental part: as §2, §3, §4, §5
Another data set in a line: Biodistribution in mice. In kind it is in vivo. To be noted: mouse, CNS, total radioactivity; 10 MBq intravenous (tail vein), 4 h p.i. As for the experimental part:
Synthesis and radiolabelling of DTPA-P0_101–125 with ^111In is described in Additional file 1: synthesis of control compounds. For quantitative assessment of the biodistribution of [^111In]In-DTPA-P0_101–125, 10 MBq of the labelled tracer was injected intravenously (tail vein). The percentage of the injected activity per gram of tissue (%IA/g) was assessed at 2 h post-injection as previously described. Excretion was defined as: (MBq present in animal at 24 h post-tracer administration/injected activity) * 100%.

Usually solubility (thermodynamic) stands for solubility found after equilibrating the solid with the medium. The term amount remaining denotes what is left of the initial amount, in per cent. Broadly, the tissue uptake is the percentage of the injected dose found per gram of tissue.

Values after ≈ are worked out from the molar mass of the structure shown. Residues, ends and D or L forms follow the SMILES beside them. *: point of attachment. X1 = CC1(C)C(/C=C/C=C/C=C2/N(CCCCS(=O)(=O)O)c3ccc(S(=O)(=O)O)cc3C2(C)C)=[N+](CCCCCC(=O)NCCN2C(=O)CC(*)C2=O)c2ccc(S(=O)(=O)[O-])cc21; X2 = CC1(C)C(=C/C=C/C=C/C2=[N+](CCCCS(=O)(=O)O)c3ccc(S(=O)(=O)[O-])cc3C2(C)C)N(CCCCCC(=O)NCCN2C(=O)CC(*)C2=O)c2ccc(S(=O)(=O)O)cc21; X3 = O=C(O)CN(CCN(CCN(CC(=O)O)CC(=O)O)CC(=O)NCCN1C(=O)CC(*)C1=O)CC(=O)O

As to `C[N+]1=C(/C=C/C=C/C=C2/N(CCCCCC(=O)NCCN3C(=O)C=CC3=O)c3ccccc3C2(C)C)C(C)(C)c2ccccc21.[Cl-]` [Cy5-Maleimide], the “staining of P0-expressing Schwannoma cells” value in data set [1] is reported as “no staining was observed”.

On to `CC[C@H](C)[C@H](NC(=O)[C@H](CC(=O)O)NC(=O)[C@@H]1CCCN1C(=O)[C@@H]1CCCN1C(=O)[C@H](CC(N)=O)NC(=O)[C@H](CCCCN)NC(C)=O)C(=O)N[C@H](C(=O)NCC(=O)N[C@@H](CCCCN)C(=O)N[C@H](C(=O)N[C@@H](CO)C(=O)N[C@@H](CCC(N)=O)C(=O)N[C@H](C(=O)N[C@H](C(=O)N[C@@H](CC(C)C)C(=O)N[C@@H](Cc1ccc(O)cc1)C(=O)N[C@H](C(=O)N[C@@H](Cc1ccccc1)C(=O)N[C@@H](CCC(=O)O)C(=O)N[C@@H](CCCCN)C(=O)N[C@H](C(=O)N1CCC[C@H]1C(=O)N[C@H](C(=O)N[C@@H](CCCNC(=N)N)C(=O)N[C@@H](Cc1ccc(O)cc1)C(=O)N[C@@H](CSC1CC(=O)N(CCNC(=O)CCCCC[N+]2=C(/C=C/C=C/C=C3/N(CCCCS(=O)(=O)O)c4ccc(S(=O)(=O)O)cc4C3(C)C)C(C)(C)c3cc(S(=O)(=O)[O-])ccc32)C1=O)C(N)=O)[C@@H](C)O)C(C)C)C(C)C)[C@@H](C)O)C(C)C)[C@@H](C)O)C(C)C` (stereo partly drawn) [Cy5-P0_101–125] (Ac-KNPPDIVGKTSQVTLYVFEKVPTRYC(X1)-NH2), for which the “Cy5-related fluorescence remaining after blocking with P0Ab” value in data set [2] was 13.5 ± 7.1%.

For `CC[C@H](C)[C@H](NC(=O)[C@H](CC(=O)O)NC(=O)[C@@H]1CCCN1C(=O)[C@@H]1CCCN1C(=O)[C@H](CC(N)=O)NC(=O)[C@H](CCCCN)NC(C)=O)C(=O)N[C@H](C(=O)NCC(=O)N[C@@H](CCCCN)C(=O)N[C@H](C(=O)N[C@@H](CO)C(=O)N[C@@H](CCC(N)=O)C(=O)N[C@H](C(=O)N[C@H](C(=O)N[C@@H](CC(C)C)C(=O)N[C@@H](Cc1ccc(O)cc1)C(=O)N[C@H](C(=O)N[C@@H](Cc1ccccc1)C(=O)N[C@@H](CCC(=O)O)C(=O)N[C@@H](CCCCN)C(=O)N[C@H](C(=O)N1CCC[C@H]1C(=O)N[C@H](C(=O)N[C@@H](CCCNC(=N)N)C(=O)N[C@@H](Cc1ccc(O)cc1)C(=O)N[C@@H](CSC1CC(=O)N(CCNC(=O)CCCCCN2C(=C/C=C/C=C/C3=[N+](CCCCS(=O)(=O)O)c4ccc(S(=O)(=O)[O-])cc4C3(C)C)C(C)(C)c3cc(S(=O)(=O)O)ccc32)C1=O)C(N)=O)[C@@H](C)O)C(C)C)C(C)C)[C@@H](C)O)C(C)C)[C@@H](C)O)C(C)C` (stereo partly drawn) [Cy5-P0_101–125] (Ac-KNPPDIVGKTSQVTLYVFEKVPTRYC(X2)-NH2), the Serum protein binding in the data set “Serum protein binding” is on record as 89% ± 2%. In “Solubility in H2O”, this compound gave a solubility (thermodynamic) of 172 µM (≈ 673 µg/mL). For the same compound, the “degradation when incubated with glutathione” value in data set [3] (6 hr at 37 °C) turned out to be 8%. Moreover, the amount remaining at 6 h in data set [3] (buffer or solvent, 37 °C water bath, stock in H2O, HPLC UV/Vis) stood at 92%. The compound also showed a share remaining at 24 h in data set [4] of 99%. Further, the logP in data set [5] was -1.39 ± 0.09.

In the case of `CC[C@H](C)[C@H](NC(=O)[C@H](CC(=O)O)NC(=O)[C@@H]1CCCN1C(=O)[C@@H]1CCCN1C(=O)[C@H](CC(N)=O)NC(=O)[C@H](CCCCN)NC(C)=O)C(=O)N[C@H](C(=O)NCC(=O)N[C@@H](CCCCN)C(=O)N[C@H](C(=O)N[C@@H](CO)C(=O)N[C@@H](CCC(N)=O)C(=O)N[C@H](C(=O)N[C@H](C(=O)N[C@@H](CC(C)C)C(=O)N[C@@H](Cc1ccc(O)cc1)C(=O)N[C@H](C(=O)N[C@@H](Cc1ccccc1)C(=O)N[C@@H](CCC(=O)O)C(=O)N[C@@H](CCCCN)C(=O)N[C@H](C(=O)N1CCC[C@H]1C(=O)N[C@H](C(=O)N[C@@H](CCCNC(=N)N)C(=O)N[C@@H](Cc1ccc(O)cc1)C(=O)N[C@@H](CSC1CC(=O)N(CCNC(=O)CN(CCN(CC(=O)O)CC(=O)O)CCN(CC(=O)O)CC(=O)O)C1=O)C(N)=O)[C@@H](C)O)C(C)C)C(C)C)[C@@H](C)O)C(C)C)[C@@H](C)O)C(C)C` (stereo partly drawn) [[^111In]In-DTPA-P0_101–125, metal not drawn] (Ac-KNPPDIVGKTSQVTLYVFEKVPTRYC(X3)-NH2), the tissue uptake at 4 h in “Biodistribution in mice” turned out to be 0.12 ± 0.03 %ID/g.
